ChEMBL document CHEMBL1641504, “Characterization and anions inhibition studies of an α-carbonic anhydrase from the teleost fish Dicentrarchus labrax” (Bioorg Med Chem, 2011)

Legend:
Carbonic anhydrase 4 = Carbonic anhydrase 4 (Homo sapiens, UniProt P22748)
Description: Inhibition of human carbonic anhydrase 4 by Lineweaver-Burk curves

Carbonic anhydrase 1 = Carbonic anhydrase 1 (Homo sapiens, UniProt P00915)
Description: Inhibition of human carbonic anhydrase 1 by Lineweaver-Burk curves

Carbonic anhydrase 9 = Carbonic anhydrase 9 (Homo sapiens, UniProt Q16790)
Description: Inhibition of human carbonic anhydrase 9 by Lineweaver-Burk curves

[1] = target: Carbonic anhydrase 5A, mitochondrial (Homo sapiens, UniProt P35218)
Description: Inhibition of human carbonic anhydrase 5 by Lineweaver-Burk curves

Carbonic anhydrase 2 = Carbonic anhydrase 2 (Homo sapiens, UniProt P00918)

Sequence of Carbonic anhydrase 4 (P22748 whole entry): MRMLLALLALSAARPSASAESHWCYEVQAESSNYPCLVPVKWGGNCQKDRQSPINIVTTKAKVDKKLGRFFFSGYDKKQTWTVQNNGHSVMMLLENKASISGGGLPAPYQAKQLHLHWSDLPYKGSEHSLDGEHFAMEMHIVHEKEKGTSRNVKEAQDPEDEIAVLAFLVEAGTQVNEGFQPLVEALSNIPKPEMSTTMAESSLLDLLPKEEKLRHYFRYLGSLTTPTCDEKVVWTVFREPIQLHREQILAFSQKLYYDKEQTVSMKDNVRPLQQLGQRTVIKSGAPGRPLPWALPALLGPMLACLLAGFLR
Sequence of Carbonic anhydrase 5A, mitochondrial (P35218 whole entry): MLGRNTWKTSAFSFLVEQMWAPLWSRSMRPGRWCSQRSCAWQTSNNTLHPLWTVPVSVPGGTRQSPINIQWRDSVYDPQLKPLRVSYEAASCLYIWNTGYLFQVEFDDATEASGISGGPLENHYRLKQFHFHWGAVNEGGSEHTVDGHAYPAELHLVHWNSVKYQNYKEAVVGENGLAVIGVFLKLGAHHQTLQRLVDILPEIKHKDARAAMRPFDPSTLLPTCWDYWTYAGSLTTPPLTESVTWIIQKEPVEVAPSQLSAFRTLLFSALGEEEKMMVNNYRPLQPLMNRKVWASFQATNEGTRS
Sequence of Carbonic anhydrase 1 (P00915 whole entry): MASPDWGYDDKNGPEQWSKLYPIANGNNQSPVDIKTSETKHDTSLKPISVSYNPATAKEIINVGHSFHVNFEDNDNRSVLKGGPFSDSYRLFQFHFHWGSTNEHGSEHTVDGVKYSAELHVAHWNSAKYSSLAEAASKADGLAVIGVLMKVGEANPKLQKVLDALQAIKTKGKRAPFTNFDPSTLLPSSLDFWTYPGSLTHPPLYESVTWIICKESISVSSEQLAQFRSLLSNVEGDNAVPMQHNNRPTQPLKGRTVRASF

SMILES	Ki (Carbonic anhydrase 4) [mM]	Ki (Carbonic anhydrase 1) [mM]	Ki (Carbonic anhydrase 9) [mM]	Ki [1] [mM]	Ki (Carbonic anhydrase 2) [mM]
[Br-].[K+] [POTASSIUM BROMIDE]	0.09	4	16	50	–
[Cl-].[K+] [POTASSIUM CHLORIDE]	0.09	6	33	156	> 200
[F-].[K+] [POTASSIUM FLUORIDE]	0.07	–	48	241	–
[I-].[K+] [POTASSIUM IODIDE]	0.08	0.3	7	25	–
O=[N+]([O-])[O-].[K+] [POTASSIUM NITRATE]	58.7	7	46	16	–
[N-]=[N+]=[N-] [SODIUM AZIDE]	–	–	0.005	0.3	–
O=NO [SODIUM NITRITE]	–	–	–	16	–
O=S(=O)([O-])[O-].[Na+].[Na+] [SODIUM SULFATE ANHYDROUS]	9	–	–	680	–
N#C[S-].[Na+] [THIOCYANATE SODIUM]	39	–	0.13	0.74	–
